Measured values: paper PMC7159882, “Polyunsaturated fatty acid analogues differentially affect cardiac NaV, CaV, and KV channels through unique mechanisms” (eLife, 2020)

Tests used:
[1] = target: T1, Cav1.2/β2/α2δ (Homo sapiens, UniProt Q13936); assay: Two-electrode voltage clamp of Cav1.2/β2/α2δ expressed in Xenopus oocytes; type: cell-based; details: co-expression with β2 subunit instead of β3
T1 construct: expressed in transfected cells; host or cells: Xenopus laevis oocytes (cRNA injection; no ratio printed for the β2 combination)
Method: Molecular Biology cRNA encoding Kv7.1 (UniProt: P51787), KCNE1 (UniProt: P15382.1), Nav1.5 (UniProt: Q14524.1), Nav β1 (UniProt: […]), Nav β3 (UniProt: […]), Cav1.2 (GenBank: CAA84346), Cav β3 (Uniprot: P54286), Cav β2 (Uniprot: P54288), and Cav α2δ (Uniprot: P13806) were transcribed using the mMessage mMachine T7 kit (Ambion). 50 ng of cRNA was injected into defolliculated Xenopus laevis oocytes (Ecocyte, Austin, TX): For Kv7.1/KCNE1 channel expression, we injected a 3:1, weight:weight (Kv7.1:KCNE1) cRNA ratio. For Nav1.5 channel expression, we injected a 2:1, weight:weight (Nav1.5:β1) cRNA ratio. For Cav1.2 channel expression, we injected a 2:1:1, weight:weight (Cav1.2:β3:α2δ) cRNA ratio. The exact stoichiometry for channel macromolecular complexes, including α -subunits and auxiliary subunits is not clear for many ion channels. For example, there have been multiple reported stoichiometries for Kv7.1:KCNE1 determined in heterologous expression systems with some groups reporting flexible stoichiometry of 4 Kv7.1: 1–4 KCNE1 and others reporting a fixed stoichiometry of 4 Kv7.1: 2 KCNE1 ([Murray et al., 2016]; [Nakajo et al., 2010]). […]
Xenopus laevis oocytes were recorded in the two-electrode voltage clamp (TEVC) configuration. […]

[2] = target: T2, Cav1.2/β3/α2δ (Homo sapiens, UniProt Q13936); assay: Two-electrode voltage clamp of Cav1.2/β3/α2δ expressed in Xenopus oocytes (Ba2+ as charge carrier); type: cell-based; details: for ICa I/I0: relative current at 0 mV
T2 construct: expressed in transfected cells; host or cells: Xenopus laevis oocytes (cRNA injection, Cav1.2:β3:α2δ 2:1:1 by weight)
Method: (§1) Molecular Biology cRNA encoding Kv7.1 (UniProt: P51787), KCNE1 (UniProt: P15382.1), Nav1.5 (UniProt: Q14524.1), Nav β1 (UniProt: […]), Nav β3 (UniProt: […]), Cav1.2 (GenBank: CAA84346), Cav β3 (Uniprot: P54286), Cav β2 (Uniprot: P54288), and Cav α2δ (Uniprot: P13806) were transcribed using the mMessage mMachine T7 kit (Ambion). 50 ng of cRNA was injected into defolliculated Xenopus laevis oocytes (Ecocyte, Austin, TX): For Kv7.1/KCNE1 channel expression, we injected a 3:1, weight:weight (Kv7.1:KCNE1) cRNA ratio. For Nav1.5 channel expression, we injected a 2:1, weight:weight (Nav1.5:β1) cRNA ratio. For Cav1.2 channel expression, we injected a 2:1:1, weight:weight (Cav1.2:β3:α2δ) cRNA ratio. The exact stoichiometry for channel macromolecular complexes, including α -subunits and auxiliary subunits is not clear for many ion channels. For example, there have been multiple reported stoichiometries for Kv7.1:KCNE1 determined in heterologous expression systems with some groups reporting flexible stoichiometry of 4 Kv7.1: 1–4 KCNE1 and others reporting a fixed stoichiometry of 4 Kv7.1: 2 KCNE1 ([Murray et al., 2016]; [Nakajo et al., 2010]). The ratios of cRNA of α- and auxiliary subunits that we injected in Xenopus laevis oocytes are such that all α-subunits are assumed to be in complex with auxiliary subunits. This allows a more homogenous population of ion channels with auxiliary subunits. One caveat to expressing ion channels as macromolecular complexes is that there are many other auxiliary subunits that could associate with the channel α -subunit that are present in cardiomyocytes and have the potential to alter PUFA-induced effects, but that are not being co-expressed in our experiments. In this work, we are co-expressing some of the auxiliary subunits that have been primarily reported to associate with their respective α -subunits in cardiomyocytes. Following cRNA injection, cells were incubated for 72–96 hr in standard ND96 solution (96 mM NaCl, 2 mM KCl, 1 mM MgCl2, 1.8 mM CaCl2, 5 mM HEPES; pH = 7.5) containing 1 mM pyruvate at 16°C prior to electrophysiological recordings.
(§2) Xenopus laevis oocytes were recorded in the two-electrode voltage clamp (TEVC) configuration. Recording pipettes were filled with 3 M KCl. The recording chamber was filled with ND96 (96 mM NaCl, 2 mM KCl, 1 mM MgCl2, 1.8 mM CaCl2, 5 mM HEPES; pH 7.5). For Cav1.2/β3/α2δ channel recordings, Xenopus oocytes were injected with 50 nl of 100 mM EGTA and incubated at 10°C for 30 min prior to electrophysiological recordings in order to sequester cytosolic calcium. In addition, Cav1.2/β3/α2δ channel recordings were done in Ca^2+-free solutions, using Ba^2+ as the charge carrier, to prevent calcium-dependent inactivation of Cav1.2/β3/α2δ channels. Calcium-dependent inactivation was not studied in this work, due to the presence of large calcium-activated chloride currents present in Xenopus laevis oocytes. PUFAs were obtained from Cayman Chemical (Ann Arbor, MI.) or synthesized in house (Linköping, Sweden) through methods previously described ([Bohannon et al., 2020]) and kept at −20 °C as 100 mM stock solutions in ethanol. Serial dilutions of the different PUFAs were prepared from stocks to make 0.2 μM, 0.7 μM, 2 μM, 7 μM, and 20 μM concentrations in ND96 solutions (pH = 7.5). PUFAs were perfused into the recording chamber using the Rainin Dynamax Peristaltic Pump (Model RP-1) (Rainin Instrument Co., Oakland, CA. USA).
(§3) Electrophysiological recordings were obtained using Clampex 10.3 software (Axon, pClamp, Molecular Devices). To measure Kv7.1/KCNE1 currents we apply PUFAs as the membrane potential is stepped every 30 s from −80 mV to 0 mV for 5 s before stepping to −40 mV and back to −80 mV to ensure that the PUFA effects on the current at 0 mV reached steady state. A voltage-step protocol was used to measure the current vs. voltage (I-V) relationship before PUFA application and after the PUFA effects had reached steady state for each concentration of PUFA. […]

[3] = target: T3, Nav1.5/β1 (Homo sapiens, UniProt Q14524); assay: Two-electrode voltage clamp of Nav1.5/β1 expressed in Xenopus oocytes; type: cell-based; details: for INa I/I0: relative current at 0 mV
T3 construct: Nav1.5 (UniProt: Q14524.1); expressed in transfected cells; host or cells: Xenopus laevis oocytes (cRNA injection, Nav1.5:β1 2:1 by weight)
Method: as §1, §2, §3

[4] = system: Herg channels; design: method as in B.H. Bentzen and H. Duff, unpublished data; details: up to 10 μM; heterologous systems; ref B.H. Bentzen and H. Duff, unpublished data; cited from earlier work

T2 sequence (Q13936 1-2138 isoform Q13936-20): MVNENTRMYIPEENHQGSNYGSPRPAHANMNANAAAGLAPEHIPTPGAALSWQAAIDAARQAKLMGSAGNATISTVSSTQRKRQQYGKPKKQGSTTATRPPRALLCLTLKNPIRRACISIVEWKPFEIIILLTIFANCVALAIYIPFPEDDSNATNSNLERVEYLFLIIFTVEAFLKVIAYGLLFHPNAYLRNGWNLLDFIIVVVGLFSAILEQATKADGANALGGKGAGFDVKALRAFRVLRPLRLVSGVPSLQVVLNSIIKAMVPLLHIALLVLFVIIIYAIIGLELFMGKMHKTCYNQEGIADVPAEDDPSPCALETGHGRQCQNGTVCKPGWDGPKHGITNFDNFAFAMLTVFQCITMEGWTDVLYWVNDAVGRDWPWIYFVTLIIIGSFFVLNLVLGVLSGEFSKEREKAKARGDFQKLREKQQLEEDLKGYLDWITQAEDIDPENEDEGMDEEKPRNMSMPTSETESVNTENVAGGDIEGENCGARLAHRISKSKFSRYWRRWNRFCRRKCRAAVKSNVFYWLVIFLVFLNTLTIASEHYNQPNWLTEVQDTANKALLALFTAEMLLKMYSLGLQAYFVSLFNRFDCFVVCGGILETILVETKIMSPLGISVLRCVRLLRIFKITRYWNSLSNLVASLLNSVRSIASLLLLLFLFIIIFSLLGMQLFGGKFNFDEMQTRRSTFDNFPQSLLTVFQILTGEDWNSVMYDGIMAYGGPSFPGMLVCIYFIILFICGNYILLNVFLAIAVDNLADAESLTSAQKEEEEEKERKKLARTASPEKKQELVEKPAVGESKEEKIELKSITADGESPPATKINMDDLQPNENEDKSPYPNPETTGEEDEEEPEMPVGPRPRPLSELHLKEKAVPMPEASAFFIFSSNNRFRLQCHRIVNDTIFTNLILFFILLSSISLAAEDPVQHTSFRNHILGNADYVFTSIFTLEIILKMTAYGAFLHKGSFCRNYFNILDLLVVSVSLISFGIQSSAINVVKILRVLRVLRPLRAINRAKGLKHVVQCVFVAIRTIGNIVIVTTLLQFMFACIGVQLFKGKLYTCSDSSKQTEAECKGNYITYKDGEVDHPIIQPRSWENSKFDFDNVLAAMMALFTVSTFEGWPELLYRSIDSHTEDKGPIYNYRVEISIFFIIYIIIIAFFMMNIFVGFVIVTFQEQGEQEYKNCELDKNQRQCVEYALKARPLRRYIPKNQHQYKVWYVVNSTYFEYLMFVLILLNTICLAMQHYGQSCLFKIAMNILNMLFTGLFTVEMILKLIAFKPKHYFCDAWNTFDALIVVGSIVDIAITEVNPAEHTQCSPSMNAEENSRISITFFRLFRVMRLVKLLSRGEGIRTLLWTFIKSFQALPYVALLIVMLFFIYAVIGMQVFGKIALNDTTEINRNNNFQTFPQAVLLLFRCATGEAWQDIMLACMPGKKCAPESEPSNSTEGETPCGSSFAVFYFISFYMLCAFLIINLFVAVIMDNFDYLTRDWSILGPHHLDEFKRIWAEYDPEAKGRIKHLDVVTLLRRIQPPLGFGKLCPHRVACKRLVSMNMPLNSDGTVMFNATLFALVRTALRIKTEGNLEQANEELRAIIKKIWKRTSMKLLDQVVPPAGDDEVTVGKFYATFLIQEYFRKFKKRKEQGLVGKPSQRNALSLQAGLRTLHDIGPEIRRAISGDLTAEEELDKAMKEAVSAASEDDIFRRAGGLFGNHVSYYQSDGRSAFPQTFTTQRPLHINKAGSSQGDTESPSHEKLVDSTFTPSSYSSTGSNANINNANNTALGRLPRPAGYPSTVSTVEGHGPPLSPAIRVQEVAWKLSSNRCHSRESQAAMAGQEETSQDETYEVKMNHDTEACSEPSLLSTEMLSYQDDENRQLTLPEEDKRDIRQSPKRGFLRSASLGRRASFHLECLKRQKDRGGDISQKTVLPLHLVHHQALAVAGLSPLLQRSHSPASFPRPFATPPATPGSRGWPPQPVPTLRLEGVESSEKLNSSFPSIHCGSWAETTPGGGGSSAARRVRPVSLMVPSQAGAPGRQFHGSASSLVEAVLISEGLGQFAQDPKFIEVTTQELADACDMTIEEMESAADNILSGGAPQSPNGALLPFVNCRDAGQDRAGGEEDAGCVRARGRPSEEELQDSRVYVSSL
T2 sequence (P54286 whole entry partner): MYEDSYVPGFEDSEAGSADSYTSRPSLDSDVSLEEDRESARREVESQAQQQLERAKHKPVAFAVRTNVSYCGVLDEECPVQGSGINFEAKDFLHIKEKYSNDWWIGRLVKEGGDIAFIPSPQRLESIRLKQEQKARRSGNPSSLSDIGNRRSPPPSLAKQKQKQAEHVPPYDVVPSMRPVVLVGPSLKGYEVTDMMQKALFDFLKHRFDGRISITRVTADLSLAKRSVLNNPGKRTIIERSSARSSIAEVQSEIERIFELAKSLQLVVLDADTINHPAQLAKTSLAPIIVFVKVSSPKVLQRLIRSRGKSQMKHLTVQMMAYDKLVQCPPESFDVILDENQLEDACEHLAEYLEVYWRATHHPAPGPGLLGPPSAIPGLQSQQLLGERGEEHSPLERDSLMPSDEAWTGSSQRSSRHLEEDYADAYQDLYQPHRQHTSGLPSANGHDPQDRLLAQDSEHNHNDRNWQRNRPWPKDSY
T2 sequence (P13806 27-960 partner): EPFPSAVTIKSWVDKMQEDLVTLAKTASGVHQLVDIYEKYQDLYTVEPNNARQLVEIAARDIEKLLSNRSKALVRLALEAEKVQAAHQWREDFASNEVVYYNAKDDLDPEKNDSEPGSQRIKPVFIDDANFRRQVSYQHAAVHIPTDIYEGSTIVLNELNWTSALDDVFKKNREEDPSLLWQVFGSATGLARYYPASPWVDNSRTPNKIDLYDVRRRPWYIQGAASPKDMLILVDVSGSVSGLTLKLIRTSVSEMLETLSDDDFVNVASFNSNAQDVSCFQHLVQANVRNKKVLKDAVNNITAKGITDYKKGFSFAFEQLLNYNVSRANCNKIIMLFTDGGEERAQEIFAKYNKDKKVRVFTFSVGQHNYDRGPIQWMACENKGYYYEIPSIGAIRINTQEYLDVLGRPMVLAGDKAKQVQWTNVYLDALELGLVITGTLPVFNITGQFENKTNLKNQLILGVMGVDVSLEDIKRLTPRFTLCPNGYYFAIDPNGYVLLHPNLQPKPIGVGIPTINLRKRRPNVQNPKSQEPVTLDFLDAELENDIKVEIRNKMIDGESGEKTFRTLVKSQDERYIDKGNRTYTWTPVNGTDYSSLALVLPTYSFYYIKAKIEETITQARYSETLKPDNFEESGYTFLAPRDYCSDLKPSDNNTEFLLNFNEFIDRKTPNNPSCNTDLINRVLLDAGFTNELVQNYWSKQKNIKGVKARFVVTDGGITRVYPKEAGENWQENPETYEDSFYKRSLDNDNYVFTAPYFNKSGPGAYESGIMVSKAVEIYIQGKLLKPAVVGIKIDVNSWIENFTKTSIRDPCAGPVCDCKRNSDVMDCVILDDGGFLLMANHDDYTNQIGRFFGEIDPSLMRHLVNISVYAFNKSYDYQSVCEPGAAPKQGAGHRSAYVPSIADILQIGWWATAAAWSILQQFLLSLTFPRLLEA
T2 sequence (P13806 961-1106 partner): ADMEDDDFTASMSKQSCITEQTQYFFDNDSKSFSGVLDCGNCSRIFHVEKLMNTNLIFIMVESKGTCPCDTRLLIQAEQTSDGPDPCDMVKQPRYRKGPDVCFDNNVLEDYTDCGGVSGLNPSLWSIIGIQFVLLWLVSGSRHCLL
T1 sequence (Q13936 1-2138 isoform Q13936-20, other chains not shown): as the sequence (Q13936 1-2138 isoform Q13936-20) above
T1 sequence (P13806 27-960 partner, other chains not shown): as the sequence (P13806 27-960 partner) above
T1 sequence (P13806 961-1106 partner, other chains not shown): as the sequence (P13806 961-1106 partner) above

| SMILES | Gmax/Gmax0 ([2]; 0.2 μM) | ΔV0.5 (voltage dependence of inactivation) ([2]; 0.2 μM) [mV] | ICa I/I0 ([2]; 0.2 μM) | Gmax/Gmax0 ([2]; 0.7 μM) | ΔV0.5 (voltage dependence of inactivation) ([2]; 0.7 μM) [mV] | ICa I/I0 ([2]; 0.7 μM) | Gmax/Gmax0 ([2]; 2 μM) | ΔV0.5 (voltage dependence of inactivation) ([2]; 2 μM) [mV] | ICa I/I0 ([2]; 2 μM) | Gmax/Gmax0 ([2]; 7 μM) | ΔV0.5 (voltage dependence of inactivation) ([2]; 7 μM) [mV] | Gmax/Gmax0 ([2]; 20 μM) | ΔV0.5 (voltage dependence of inactivation) ([2]; 20 μM) [mV] | ICa I/I0 ([2]; 20 μM) | Gmax/Gmax0 ([3]; 0.2 μM) | ΔV0.5 (voltage dependence of inactivation) ([3]; 0.2 μM) [mV] | INa I/I0 ([3]; 0.2 μM) | Gmax/Gmax0 ([3]; 0.7 μM) | ΔV0.5 (voltage dependence of inactivation) ([3]; 0.7 μM) [mV] | INa I/I0 ([3]; 0.7 μM) | other results |
| --- | --- | --- | --- | --- | --- | --- | --- | --- | --- | --- | --- | --- | --- | --- | --- | --- | --- | --- | --- | --- | --- |
| CCCCC/C=C\C/C=C\CCCCCCCC(=O)NCC(=O)O [Lin-glycine] | 1.1 ± 0.03 | 0.1 ± 1.7 | 0.9 ± 0.1 | 1.1 ± 0.04 | -0.7 ± 1.8 | 0.9 ± 0.1 | 1.2 ± 0.1 | -2.9 ± 1.4 | 0.9 ± 0.1 | 1.0 ± 0.1 | −3.0 ± 1.6 | 1.0 ± 0.1 | -3.7 ± 1.5 | 0.7 ± 0.1 | 1.0 ± 0.03 | -0.2 ± 0.06 | 1.0 ± 0.03 | 1.0 ± 0.05 | -1.2 ± 0.3 | 1.0 ± 0.04 | response of Cav1.2/β2/α2δ compared with Cav1.2/β3/α2δ [1]: no differences between Cav1.2/β3/α2δ and Cav1.2/β2/α2δ; ΔV0.5 (voltage dependence of inactivation) ([2]; 7 μM, listed as lin-glycine): -3.0 ± 1.6 mV; ICa I/I0 ([2]; 7 μM, listed as lin-glycine): 0.8 ± 0.1; Gmax/Gmax0 ([3]; 2 μM): 0.9 ± 0.06; ΔV0.5 (voltage dependence of inactivation) ([3]; 2 μM): -4.3 ± 0.8 mV; INa I/I0 ([3]; 2 μM): 0.9 ± 0.1; Gmax/Gmax0 ([3]; 7 μM): 0.5 ± 0.1; ΔV0.5 (voltage dependence of inactivation) ([3]; 7 μM): −15.2 ± 2.8 mV; ΔV0.5 (voltage dependence of inactivation) ([3]; 7 μM, listed as lin-glycine): -15.2 ± 2.8 mV; INa I/I0 ([3]; 7 μM): 0.5 ± 0.1 (p=0.02); INa I/I0 ([3]; 7 μM, listed as lin-glycine): 0.5 ± 0.1; Gmax/Gmax0 ([3]; 20 μM): 0.2 ± 0.02; ΔV0.5 (voltage dependence of inactivation) ([3]; 20 μM): -21.7 ± 1.2 mV; INa I/I0 ([3]; 20 μM): 0.3 ± 0.02 |
| CCCCC/C=C\C/C=C\C/C=C\C/C=C\CCCC(=O)NCCS(=O)(=O)O [N-AT, N-arachidonoyl taurine] | 0.9 ± 0.02 | 0.4 ± 0.3 | 0.9 ± 0.1 | 0.9 ± 0.1 | 0.5 ± 1.0 | 0.9 ± 0.1 | 0.8 ± 0.03 | 0.2 ± 2.2 | 0.9 ± 0.1 | 0.7 ± 0.1 | 0.6 ± 2.0 | 0.6 ± 0.03 | 1.4 ± 1.7 | 0.7 ± 0.1 | 1.0 ± 0.04 | -0.2 ± 0.5 | 1.0 ± 0.09 | 1.0 ± 0.06 | 0.2 ± 1.4 | 1.0 ± 0.07 | effects on currents through Herg channels [4]: neither N-AT nor DHA-glycine up to 10 μM had any significant effects; Gmax/Gmax0 ([3]; 2 μM): 0.7 ± 0.03; ΔV0.5 (voltage dependence of inactivation) ([3]; 2 μM): -5.2 ± 0.4 mV; INa I/I0 ([3]; 2 μM): 0.7 ± 0.08; Gmax/Gmax0 ([3]; 7 μM): 0.3 ± 0.04; ΔV0.5 (voltage dependence of inactivation) ([3]; 7 μM): –16.7 ± 3.5 mV; Gmax/Gmax0 ([3]; 20 μM): 0.07 ± 0.01; ΔV0.5 (voltage dependence of inactivation) ([3]; 20 μM): -27.5 ± 2.9 mV; INa I/I0 ([3]; 20 μM): 0.1 ± 0.02 |
